Key:
[1] = system: porcine liver esterase; experiment: Decay in the presence of porcine liver esterase; format: in vitro ADME; settings: 25° C., phosphate buffer pH 7.4, porcine liver esterase suspension added
Procedure: This example describes the determination of the halflife of the Compound produced in Example 24 in the absence and presence of porcine liver esterase at 25° C. and pH 7.4.
A 0.009 M ethanolic stock solution of O2—[S-acetyl-(2-mercaptoethyl)]1-[(2-carboxylato)pyrrolidin-1-yl]diazen-1-ium-1,2-diolate [S-acetyl-(2-mercapto-ethyl)]ester was prepared. The decay of this compound was monitored at 25° C. as 1.5×10^−4 M solutions in a 4 ml quartz cuvette containing 3 ml of phosphate buffer (pH 7.4) and […] of stock solution. The decay of the 232 nm chromophore was monitored on the ultraviolet spectrophotometer. The halflife was estimated as 3.2 hr.
A second set of experiments was carried out using the above parameters to measure the decay after addition of 5 ml of porcine liver esterase suspension. The half-life for the esterase reaction was 8 min at 25° C.

[2] = system: glutathione S-transferase (GST); settings: FIG. 2
[3] = Cleavage of O2-glucopyranosyl diazeniumdiolate to DEA/NO anion and NO as a function of pH; format: physicochemical
[4] = Kinetics of reaction with sodium methoxide in methanol (HPLC); format: physicochemical; settings: reaction with excess NaOMe in methanol; disappearance monitored by HPLC
Excerpt: This Example illustrates the kinetics of reaction of O^2-(2,4-dinitrophenyl) 1-(N,N-diethylamino)diazen-1-ium-1,2-diolate with sodium methoxide in methanol. The kinetics of this reaction show the rate of conversion of O^2-(2,4-dinitrophenyl) 1-(N,N-diethylamino)diazen-1-ium-1,2-diolate to 1-(N,N-diethylamino)diazen-1-ium-1,2-diolate ion in alkaline or nucleophilic environments.
An excess of NaOMe was used in the reactions; aliquots were collected at intervals and quenched with 0.1 N HCl in methanol. […] This was determined by plotting log[O^2-(2,4-dinitrophenyl) 1-(N,N-diethylamino)diazen-1-ium-1,2-diolate] vs. time to find kobs′ at four different concentrations of NaOMe.

[5] = NO release in the presence or absence of glutathione, chemiluminescence; settings: 37° C.
Procedure: This Example illustrates the regeneration of NO from O^2-(2,4-dinitrophenyl) 1-(N,N-diethylamino)diazen-1-ium-1,2-diolate in the presence, but not the absence, of glutathione.
A solution containing 1 mM glutathione (GSH) in 10 mM phosphate buffer was degassed by purging with argon for 10 min, whereupon a 3 ml aliquot was mixed with 3 μl of a dioxane solution that was 2 mM in O^2-(2,4-dinitrophenyl) 1-(N,N-diethylamino)diazen-1-ium-1,2-diolate. NO release was monitored by chemiluminescence while the mixture was held at 37° C. […] Total NO generation during the first 112 min was approximately 9 nmol. Assuming that […] of NO is generated per mol of O^2-(2,4-dinitrophenyl) 1-(N,N-diethylamino)diazen-1-ium-1,2-diolate, this 9 nmol corresponds to roughly 75% of the theoretical yield.
The nucleophilic glutathione reacted with the O^2-(2,4-dinitrophenyl) 1-(N,N-diethylamino)diazen-1-ium-1,2-diolate to produce NO according to the equation shown below.

[6] = system: glutathione S-transferase; experiment: Glutathione S-transferase kinetics (UV absorbance at 380 nm); format: biochemical; settings: 25° C., 0.1 M phosphate buffer pH 7.4, enzyme 0.7 μg/ml, glutathione 1.4 mM, diazeniumdiolate 50–100 μM
Excerpt: The following examples further illustrate the present invention and, of course, should not be construed as in any way limiting its scope. With respect to the following examples, NO was obtained from Matheson Gas Products (Montgomeryville, Pa.), β- and α-glycosidases and porcine liver esterase were obtained from Sigma Chemical Co. (St, Louis, Mo.), polyurethane (Tecoflex) was obtained from Thermedics Inc. (Woburn, Mass.), and glucose and mannose were obtained from Aldrich Chemical Co. (Milwaukee, Wis.). Proton NMR spectra were recorded with a 300 MHz Varian Unity Plus or a Varian XL-200 NMR spectrometer. Spectra were obtained in deuterochloroform for covalent compounds and in D2O for salts. Chemical shifts are reported in parts per million (ppm) downfield from TMS. Low and high resolution mass spectral (MS) measurements were carried out on a VG-Micromass Model 7070 spectrometer. Unless otherwise indicated, MS data were collected in the electron impact mode with sample introduction via direct probe. Ultraviolet (UV) spectra were run as solutions in water or 0.01 M NaOH on an HP 8451A Diode Array spectrophotometer. Glutathione S-transferase kinetics were monitored by measuring the change in UV absorbance at 380 nm with a Beckman DU 640 spectrophotometer. Chemiluminescence measurements were done on a Thermal Energy Analyzer Model 502A instrument (Thermedics, Inc., Woburn, Mass.). […]

[7] = 1 mM GSH in 10 mM phosphate buffer

## CC(=O)SCCON=[N+]([O-])N1CCCC1C(=O)OCCSC(C)=O (stereo not shown) [Example 24, O^2—[S-acetyl-(2-mercaptoethyl)]1-[(2-carboxylato)pyrrolidin-1-yl]diazen-1-ium-1,2-diolate [S-acetyl-(2-mercaptoethyl)]ester]
[1]
  half-life for the esterase reaction: 8 min

## O=[N+]([O-])c1ccc(ON=[N+]([O-])N2CCCC2)c([N+](=O)[O-])c1 [Example 8, O^2-(2,4-dinitrophenyl) 1-(pyrrolidin-1-yl)diazen-1-ium-1,2-diolate]
[2]
  relative NO release rate versus time with GST: catalysis of NO release

## CCN(CC)[N+]([O-])=NOC1O[C@H](CO)[C@@H](O)[C@H](O)[C@H]1O (stereo partly shown) [Example 31, O^2-glucopyranosyl 1-(N,N-diethylamino)diazen-1-ium-1,2-diolate]
[3]; pH 3
  cleavage to DEA/NO anion, then to NO: only extremely slowly
[3]; pH 13
  cleavage to DEA/NO anion, then to NO: extremely rapidly

## O=C([O-])C1CCCN1[N+]([O-])=N[O-].[Na+].[Na+] (stereo not shown) [Example 19, disodium 1-[(2-carboxylato)pyrrolidin-1-yl]diazen-1-ium-1,2-diolate]
other
  melting point: 250 °C (dec.)

## CCN(CC)[N+]([O-])=NOc1ccc([N+](=O)[O-])cc1[N+](=O)[O-] [Example 1, O^2-(2,4-dinitrophenyl) 1-(N,N-diethylamino)diazen-1-ium-1,2-diolate]
[4]
  second-order rate constant: 7.87 M⁻¹ min⁻¹
[5]; [7]
  time NO generation continued at readily detectable levels: approximately 100 minutes
  time of peak nitric oxide generation after reaction was initiated: approximately 15 minutes
[5]; 1 mM GSH in 10 mM phosphate buffer, 3 μl of 2 mM solution in 3 ml
  total NO generation during the first 112 min: approximately 9 nmol
[5]; 1 mM GSH, first 112 min
  NO generated as share of the theoretical yield: roughly 75%
[5]; 10 mM phosphate buffer, no GSH
  NO generation with exclusion of the GSH: no NO generation was observed
[6]
  Km: 46.3 µM
  Vmax: 0.89 µM/min

Reference: patent US7081524B2, “O2-substituted 1-[(2-carboxylato)pyrrolidin-1-yl]diazen-1-ium-1,2-diolates” (The United States of America as represented by the …, priority 1996, dated 2006)
